Square brackets hold non-standard residues; d marks the D form. Peptide text beside a SMILES is read from it. * marks the point of attachment. FITC = O=C1OC2(c3ccc(O)cc3Oc3cc(O)ccc32)c2ccc(NC(=S)*)cc21; pS = N[C@@H](COP(=O)(O)O)C(=O)O
What was measured:
DLG1 PDZ2 [1] = biological target: T1, DLG1 PDZ2 (Homo sapiens, UniProt Q12959); assay: MST affinity measurement, FITC-labeled peptides vs DLG1 PDZ2; assay type: binding; details: FITC-labeled peptide fixed at 25–50 nM, titrated with DLG1 PDZ2 (aa 311–407), 50 mM Tris–HCl pH 7.4, 0.1% Tween‐20, thermophoresis and T Jump signal, mean ± SD, n = 3, read-out: KD values, DLG1 PDZ2 (table row head: DLG PDZ1), MST
T1 construct: human DLG1 PDZ2 aa 311–407 in a modified pRSET vector 40; made in house; host or cells: E. coli BL21 Gold (DE3)
Excerpt: (§1) Glutathione transferase (GST)‐tagged PDZ domains and GST for phage display selections were expressed and purified as described previously (Tonikian et al, 2008; Ivarsson et al, 2014). Protein expression for MST, ITC, and NMR experiments was as follows: Plasmids encoding His‐tagged proteins (human Scribble PDZ1 aa 719–829 in pETM‐11, human DLG1 PDZ2 aa 311–407 in a modified pRSET vector 40, or human Shank1 PDZ aa 652–761 in pETM‐33) were transformed into E. coli BL21 Gold (DE3; Agilent), and the proteins were expressed in 2YT media supplemented with appropriate antibiotic (70 or 100 μg/ml carbenicillin). Protein expression was induced upon reaching an OD600 of 0.8 by adding 1 mM isopropyl β‐D‐1‐thiogalactopyranoside (IPTG) final concentration and allowed for 4 h at 30°C.
(§2) Scribble PDZ1 for NMR experiments was expressed in M9 salt enriched with 13C D‐glucose and 15N ammonium chloride. Bacteria were harvested by centrifugation at 10,000 × g for 20 min at 4°C. The pellets were resuspended in PBS supplemented with 5 mM CaCl2, 10 μg/ml DNaseI, and 1 mg/ml lysozyme and protease inhibitor (cOmplete Mini EDTA‐free; Sigma‐Aldrich) and incubated for 1 h at 4°C. The lysates were subjected to sonication in 1‐ to 3‐s pulses for 20 pulses. The lysate was cleared by centrifugation at 20,000 × g for 1 h. […]

Scribble PDZ1 [2] = biological target: T2, Scribble PDZ1 (Homo sapiens, UniProt Q14160); assay: ITC titration, wild-type Scribble PDZ1; assay type: binding; details: unlabeled 9-mer peptides, 20 mM HEPES pH 7.4, 25°C, 50–100 μM protein in cell, 0.64–3 mM peptide in syringe, single-site fit, mean ± SD
T2 construct: human Scribble PDZ1 aa 719–829 in; made in house; host or cells: E. coli BL21 Gold (DE3)
Excerpt: as §1
as §2, with “pulses.” for “pulses. The lysate was cleared by centrifugation at 20,000 × g for 1 h.”
Peptides and proteins were dialyzed in the same beaker in 20 mM HEPES, pH 7.4. […] The results were analyzed using Origin 7 (OriginLab Corporation). […]

DLG1 PDZ2 [3] = biological target: T1, DLG1 PDZ2; assay: Phosphomimetic ProP-PD selection with NGS; assay type: binding; details: mean of selections 1-3, bait DLG1 PDZ2
Outline: (§3)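 Selections were run for four rounds on immobilized PDZ domains, with non-specific phage depleted on GST each round. Enriched pools from the third day were sequenced, and interactions were ranked by each peptide's share of NGS reads.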

Scribble PDZ1 [4] = biological target: T2, Scribble PDZ1; assay: Phosphomimetic ProP-PD selection with NGS; assay type: binding; details: bait Scribble PDZ1; mean of selections 1-3
Outline: as §3

DLG1 PDZ1 = assay: Phosphomimetic ProP-PD selection with NGS; assay type: binding, human; details: mean of selections 1-3, bait DLG1 PDZ1; for Mean fraction #NGS counts mimetic peptide / total count selection: phosphomimetic peptide; for Mean fraction #NGS counts wt peptide / total counts selection: wild type peptide
Outline: as §3

Scribble PDZ2 = assay: Phosphomimetic ProP-PD selection with NGS; assay type: binding, human; details: bait Scribble PDZ2; mean of selections 1 and 2 (selection 3 empty)
Outline: as §3

Scribble PDZ3 = assay: Phosphomimetic ProP-PD selection with NGS; assay type: binding, human; details: mean over selections 1-3; bait Scribble PDZ3
Outline: as §3

DLG1 PDZ3 = assay: Phosphomimetic ProP-PD selection with NGS; assay type: binding, human; details: mean of selections 1-3; bait DLG1 PDZ3
Outline: as §3

T1 sequence (Q12959 311-407): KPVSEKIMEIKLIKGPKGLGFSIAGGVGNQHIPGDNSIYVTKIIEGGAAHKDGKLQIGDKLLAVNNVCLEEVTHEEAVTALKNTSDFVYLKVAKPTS
T2 sequence (Q14160 719-829): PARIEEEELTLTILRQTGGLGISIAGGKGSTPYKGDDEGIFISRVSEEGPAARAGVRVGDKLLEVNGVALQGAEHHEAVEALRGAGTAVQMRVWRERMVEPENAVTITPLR

| Compound | Mean fraction #NGS counts mimetic peptide / total count selection (DLG1 PDZ2 [3]) | Mean fraction #NGS counts mimetic peptide / total count selection (Scribble PDZ1 [4]) | Mean fraction #NGS counts mimetic peptide / total count selection (DLG1 PDZ1) | Mean fraction #NGS counts mimetic peptide / total count selection (Scribble PDZ3) | Mean fraction #NGS counts mimetic peptide / total count selection (DLG1 PDZ3) | Mean fraction #NGS counts wt peptide / total counts selection (Scribble PDZ1 [4]) | Mean fraction #NGS counts wt peptide / total counts selection (DLG1 PDZ1) | Mean fraction #NGS counts wt peptide / total counts selection (Scribble PDZ3) | Mean fraction #NGS counts wt peptide / total counts selection (DLG1 PDZ3) | also measured |
| --- | --- | --- | --- | --- | --- | --- | --- | --- | --- | --- |
| CC[C@H](C)[C@H](NC(=O)[C@H](Cc1ccccc1)NC(=O)[C@H](CO)NC(=O)[C@H](CCCNC(=N)N)NC(=O)[C@H](CCCCN)NC(=S)Nc1ccc2c(c1)C(=O)OC21c2ccc(O)cc2Oc2cc(O)ccc21)C(=O)N[C@@H](CCC(=O)O)C(=O)N[C@@H](CO)C(=O)N[C@@H](CC(N)=O)C(=O)N[C@H](C(=O)O)C(C)C [TANC1] ({FITC}-KRSFIESNV-OH) | – | – | – | – | – | – | – | – | – | Kd (DLG1 PDZ2 [1]): 2.7 ± 0.1 µM |
| CC[C@H](C)[C@H](NC(=O)[C@H](Cc1ccccc1)NC(=O)[C@H](COP(=O)(O)O)NC(=O)[C@H](CCCNC(=N)N)NC(=O)[C@H](CCCCN)NC(=S)Nc1ccc2c(c1)C(=O)OC21c2ccc(O)cc2Oc2cc(O)ccc21)C(=O)N[C@@H](CCC(=O)O)C(=O)N[C@@H](CO)C(=O)N[C@@H](CC(N)=O)C(=O)N[C@H](C(=O)O)C(C)C [pTANC1, FITC‐KRpSFIESNV] ({FITC}-KR[pS]FIESNV-OH) | – | – | – | – | – | – | – | – | – | Kd (DLG1 PDZ2 [1]): 6.1 ± 0.7 µM |
| ARVSKEpTPL [pMAPK12, p‐2 phosphorylated MAPK12 peptide] | – | – | – | – | – | – | – | – | – | KD values, Scribble PDZ1, ITC (Scribble PDZ1 [2]; n = 3): no binding; KD values, Scribble PDZ1, ITC (Scribble PDZ1 [2]; n = 3, listed as phosphorylated MAPK12): no interaction was observed |
| HSIKQETAV | 0.01768 | 6.299e-5 | 0.0009534 | 0.0001468 | 0.0006363 | – | – | – | – | Mean fraction #NGS counts mimetic peptide / total count selection (Scribble PDZ2): 0.001519 |
| HSIKQSTAV | 0 | – | – | – | – | 4.38e-5 | 0.0004538 | 5.205e-5 | 0 | Mean fraction #NGS counts wt peptide / total counts selection (DLG1 PDZ2 [3]; wild type peptide): 5.408e-5; Mean fraction #NGS counts wt peptide / total counts selection (Scribble PDZ2): 0.0003798 |
| LPKIKEETV | 0 | 0 | 3.0718e-6 | 0 | 0 | – | – | – | – | – |
| LPKIKETTV | – | – | – | – | – | 0.0005451 | 0.004479 | 0.004275 | 0.008422 | Mean fraction #NGS counts wt peptide / total counts selection (DLG1 PDZ2 [3]): 0.04339 |
| VWLRKEERV | 3.584e-5 | 0 | 0 | 0 | 9.275e-5 | – | – | – | – | Mean fraction #NGS counts mimetic peptide / total count selection (Scribble PDZ2): 0 |
| VWLRKETRV | – | – | – | – | – | 0.0001002 | 0.4163 | 0.009414 | 0.8949 | Mean fraction #NGS counts wt peptide / total counts selection (DLG1 PDZ2 [3]): 0.5055; Mean fraction #NGS counts wt peptide / total counts selection (Scribble PDZ2): 0.008925 |
